{
  "source": "patent US10787413B2",
  "about": "“Derivatives of curcuminoids and use thereof as an anticancer agent” (CHINA MEDICAL UNIVERSITY, priority 2016, dated 2020)",
  "key": {"[1]": {"test_system": "MCF-7", "assay": "Cell viability, MCF-7 breast cancer cells", "assay_type": "cell-based", "settings": "Homo sapiens, MCF7; MCF-7 (ER+/PR+), treated for 24 h", "description": "(§1) Cell viability was evaluated by measuring the reduction in MTT to yield blue formazan. Cells were cultured in 96-well plates, allowed to attach overnight, and then treated with compounds. After treatment, MTT solution (1 mg/ml) was added to each well, and plates were incubated for another 4 h. Medium were removed, blue formazan was dissolved in DMSO, and the absorbance was read at 570 nm^20."}, "[2]": {"assay": "Stability of 21a in the culture media", "assay_type": "physicochemical", "settings": "media after 72 h treatment analyzed for curcumin", "description": "Besides, the stability of 21a in the culture media was tested."}, "[3]": {"test_system": "MDA-MB-231 cells", "assay": "Cell cycle distribution analysis (PI, flow cytometry)", "assay_type": "cell-based, human", "settings": "5 μM, 24 h", "description": "For cell cycle and sub-G1 (apoptosis) determinations, the harvested cells were fixed gently by putting 70% ethanol in 4° C. overnight and then re-suspended in PBS containing 40 μg/ml PI and 0.1 mg/ml RNase and 0.1% Triton X-100 in dark room for 30 min at 37° C. Those cells were analyzed with a flow cytometer equipped with an argon ion laser at 488 nm wavelength^22."}, "[4]": {"test_system": "MDA-MB-231 cells", "assay": "Western blot analysis of treated cells", "assay_type": "cell-based, human", "description": "After treatments, cells were harvested, washed, and suspended in PBS containing proteinase inhibitors and then disrupted with sonication. Protein concentrations were estimated using the Protein Assay kit from Bio-Rad (Hercules, Calif., USA). Samples were resolved with SDS-PAGE and transferred to a polyvinylidene difluoride membrane (EMD Millipore). Each membrane was blocked in 5% (w/v) non-fat milk in Tris-buffered saline with 0.1% (v/v) Tween-20 for 1 h followed by incubation with specific primary antibodies at 4° C. overnight. Each membrane was then incubated with horseradish peroxidase-conjugated secondary antibodies at room temperature for 1 h. Protein signals were detected with the Immobilon Western Chemiluminescent HRP Substrate (EMD Millipore) and visualized using the LAS-4000 imaging system (Fuji, Tokyo, Japan)^25."}, "[5]": {"test_system": "HS-578T", "assay": "Cell viability, HS-578T breast cancer cells", "assay_type": "cell-based", "settings": "Homo sapiens; HS-578T (Triple negative), treated for 24 h", "description": "as §1"}, "[6]": {"test_system": "MDA-MB-231 cells", "assay": "Apoptosis analysis (annexin V/propidium iodide)", "assay_type": "cell-based, human", "settings": "5 μM, 24 and 48 h", "from_the_text": "After treatments, cells were harvested and stained with annexin V and propidium iodide using the Annexin V: FITC Apoptosis Detection Kit II (BD Biosciences) and subjected to flow cytometry (FACScalibur; Becton-Dickinson, Mountain View, Calif., USA). The percentages of apoptotic cells were quantified with CellQuest software (Becton-Dickinson)^24."}, "[7]": {"test_system": "various breast cancer cell lines", "assay": "Cell viability, various breast cancer cell lines (21a compared with curcumin)", "assay_type": "cell-based", "settings": "TNBC cells", "description": "as §1"}, "[8]": {"test_system": "Doxorubicin-resistant MDA-MB-231", "assay": "Cell viability, Doxorubicin-resistant MDA-MB-231", "assay_type": "cell-based", "settings": "for IC50: Doxorubicin-resistant MDA-MB-231, treated for 24 h", "description": "as §1"}, "[9]": {"test_system": "MDA-MB-231 breast cancer cell", "assay": "MTT cell viability assay, MDA-MB-231 breast cancer cell", "assay_type": "cell-based, human", "settings": "for IC50: Homo sapiens", "description": "Cell viability was evaluated by measuring the reduction in MTT to yield blue formazan. Cells were cultured in 96-well plates, allowed to attach overnight, and then treated with compounds. After treatment, MTT solution (1 mg/ml) was added to each well, and plates were incubated for another 4 h."}, "[10]": {"test_system": "MDA-MB-468", "assay": "Cell viability, MDA-MB-468 breast cancer cells", "assay_type": "cell-based", "settings": "Homo sapiens; MDA-MB-468 (Triple negative), treated for 24 h", "description": "as §1"}, "[11]": {"assay": "Solubility in water or alcohol", "assay_type": "physicochemical", "settings": "compared with curcumin"}, "[12]": {"test_system": "CDK1", "assay": "CDK1 kinase assay on extracts of treated cells", "assay_type": "cell-based, human", "settings": "4-12 h of treatment", "description": "CDK1 kinase activity was analyzed according to the protocol of Medical & Biological Laboratories CDK1 kinase assay kit (MBL International, Nagoya, Japan). In brief; the ability of cell extract prepared from each treatment was measured to phosphorylate its specific substrate, MV Peptide as described previously^23."}, "[13]": {"test_system": "SKBR-3", "assay": "Cell viability, SKBR-3 breast cancer cells", "assay_type": "cell-based", "settings": "Homo sapiens, SK-BR-3; SKBR-3 (Her-2+), treated for 24 h", "description": "as §1"}, "[14]": {"test_system": "HCT-116 colon cancer cell", "assay": "MTT cell viability assay, HCT-116 colon cancer cell", "assay_type": "cell-based", "settings": "Homo sapiens", "description": "as §1"}, "[15]": {"test_system": "BT-474", "assay": "Cell viability, BT-474 breast cancer cells", "assay_type": "cell-based", "settings": "Homo sapiens; BT-474 (Her-2+), treated for 24 h", "description": "as §1"}, "[16]": {"test_system": "PC3 prostate cancer cell", "assay": "MTT cell viability assay, PC3 prostate cancer cell", "assay_type": "cell-based", "description": "as §1"}, "[17]": {"test_system": "MDA-MB-231 Xenograft", "assay": "In vivo antitumor activity, MDA-MB-231 Xenograft nude mice model", "description": "Female nu/nu mice (5 weeks old) were from National Laboratory Animal Center, Taipei, Taiwan. Mice were maintained under the procedures and guidelines from the Institutional Animal Care and Use Committee of the National Health Research Institutes, Taipei, Taiwan. All experiments were supervised under the Institutional Animal Care and Use Committee, China Medical University, Taichung, Taiwan. MDA-MB-231 breast cancer cells (5×10^6 cells per mouse) were suspended in 0.1 ml of Matrigel solution (50% (v/v) Matrigel in PBS) and inoculated into the mammary fat pads of the mice. […] Compounds was administered P.O. once every day for 32 days. Tumor size and mouse body weight were measured once every 4 days, and tumor volume (mm3) was calculated using the equation: length×(width)^2×0.5. At the end of experiments, mice were sacrificed and tumor nodules were dissected and weighed."}},
  "note": "Where two headings read alike, the source gives them in different places.",
  "data": [
    {"smiles": "COc1cc(/C=C/C(=O)/C=C(O)/C=C/c2ccc(OC(=O)C(C)(CO)CO)c(OC)c2)ccc1OC(=O)C(C)(CO)CO", "note": "[Compound 21a, ((1E,3Z,6E)-3-Hydroxy-5-oxohepta-1,3,6-triene-1,7-diyl)bis(2-methoxy-4,1-phenylene) bis(3-hydroxy-2-(hydroxymethyl)-2-methylpropenoate)]", "values": [
      {"measurement": "IC50", "setting": "[1]", "value": "6.13 ± 0.51", "unit": "µM"},
      {"measurement": "stability in the culture media", "setting": "[2]", "value": "stable"},
      {"measurement": "G2/M cell population", "setting": "[3]", "value": "significantly increased"},
      {"measurement": "levels of Cyclin B and CDK 1", "setting": "[4]; 5 μM, 0-24 h", "value": "down-regulated"},
      {"measurement": "levels of Bcl-2, Bcl-x", "setting": "[4]; 10 μM, 0-24 h", "value": "downregulated"},
      {"measurement": "levels of CHOP, Bip", "setting": "[4]; 10 μM, 0-24 h", "value": "up-regulated"},
      {"measurement": "levels of DR5, FADD, Bax", "setting": "[4]; 10 μM, 0-24 h", "value": "up-regulated"},
      {"measurement": "levels of Ero1, PD1, PERK1, Calnexin, IRE1α", "setting": "[4]; 10 μM, 0-24 h", "value": "downregulated"},
      {"measurement": "levels of Atg5, Atg7, Atg12, Beclin, p62 and LC3B", "setting": "[4]; 10 μM, 4-24 h, time-dependent", "value": "induced"},
      {"measurement": "IC50", "setting": "[5]", "value": "7.96 ± 0.27", "unit": "µM"},
      {"measurement": "population of annexin V-positive cells", "setting": "[6]", "value": "significantly increased"},
      {"measurement": "times greater inhibitory activity than curcumin", "setting": "[7]", "value": "3.4-7.4 times"},
      {"measurement": "times greater inhibitory activity than curcumin", "setting": "[8]; Doxorubicin-resistant MDA-MB-231", "value": 10, "unit": "times"},
      {"measurement": "IC50", "setting": "[8]", "value": "6.52 ± 1.7", "unit": "µM"},
      {"measurement": "IC50", "setting": "[8]; Homo sapiens, MDA-MB-231, 24 h", "value": 6.5, "unit": "µM"},
      {"measurement": "viability of MDA-MB-231 cells", "setting": "[9]; 0, 1, 3, 5 and 10 μM, 24 h, concentration-dependent", "value": "significantly reduced"},
      {"measurement": "combination effect with Doxorubicin", "setting": "[9]; 21a in combination with Doxorubicin, MDA-MB-231 cells", "value": "Synergistic anticancer effect"},
      {"measurement": "IC50", "setting": "[9]; MDA-MB-231, treated 24 hours, read-out: IC50 24 hours", "value": "5.37 ± 1.22", "unit": "µM"},
      {"measurement": "IC50", "setting": "[9]; MDA-MB-231, treated 48 hours, read-out: IC50 48 hours", "value": "3.06 ± 0.18", "unit": "µM"},
      {"measurement": "IC50", "setting": "[9]; MDA-MB-231, treated 72 hours, read-out: IC50 72 hours", "value": 2.67, "unit": "µM"},
      {"measurement": "times more potent than curcumin (IC50)", "setting": "[9]; MDA-MB-231, 72 h treatment, curcumin IC50 16.23 μM", "value": 6.2, "unit": "times"},
      {"measurement": "IC50", "setting": "[10]", "value": "6.13 ± 0.51", "unit": "µM"},
      {"measurement": "solubility in either water or alcohol", "setting": "[11]", "value": "better than that of curcumin"},
      {"measurement": "CDK1 activity", "setting": "[12]", "value": "significant decrease"},
      {"measurement": "IC50", "setting": "[13]", "value": "6.39 ± 0.43", "unit": "µM"},
      {"measurement": "IC50", "setting": "[14]; HCT-116, treated 24 hours, read-out: IC50 24 hours", "value": "10.5 ± 1.03", "unit": "µM"},
      {"measurement": "IC50", "setting": "[14]; HCT-116, treated 48 hours, read-out: IC50 48 hours", "value": "6.25 ± 0.596", "unit": "µM"},
      {"measurement": "IC50", "setting": "[14]; HCT-116, treated 72 hours, read-out: IC50 72 hours", "value": "3.91 ± 0.27", "unit": "µM"},
      {"measurement": "IC50", "setting": "[15]", "value": "6.15 ± 0.87", "unit": "µM"},
      {"measurement": "IC50", "setting": "[16]; PC-3, treated 24 hours, read-out: IC50 24 hours", "value": "7.8 ± 0.03", "unit": "µM"},
      {"measurement": "IC50", "setting": "[16]; PC-3, treated 48 hours, read-out: IC50 48 hours", "value": "6 ± 0.35", "unit": "µM"},
      {"measurement": "IC50", "setting": "[16]; PC-3, treated 72 hours, read-out: IC50 72 hours", "value": "3.9 ± 0.08", "unit": "µM"},
      {"measurement": "antitumor activity, fold more potent than curcumin", "setting": "[17]; MDA-MB-231 Xenograft nude mice model", "value": 10, "unit": "fold"},
      {"measurement": "antitumor activity", "setting": "[17]; PO 5 mg/kg/day", "value": "significant antitumor activity"},
      {"measurement": "inhibitory efficacy", "setting": "[17]; PO 10 mg/kg/day", "value": "equivalent to 100 mg/kg/day of curcumin"},
      {"measurement": "tumor weight lighter than that of the control group", "setting": "[17]; PO 50 mg/kg/day", "value": 60, "unit": "%"},
      {"measurement": "inhibition of MDA-MB-231 tumor growth", "setting": "[17]; PO 5, 10, 25 and 50 mg/kg/day", "value": "dose- and time-dependent inhibition"},
      {"measurement": "body weight, behavior change and blood chemistry (serology detection)", "setting": "[17]; treated vs untreated control group during antitumor evaluation", "value": "no significant difference"}
    ]}
  ]
}
